Measured values as given in paper PMC11676115, “A New Heteroleptic Zn(II) Complex with Schiff Bases Sensitizes Triple-Negative Breast Cancer Cells to Doxorubicin and Paclitaxel” (Pharmaceutics, 2024).

Assays:
[1] = system: MCF7 (ER-positive BC) cells; assay: MTT cell viability assay, MCF7; assay type: cell-based, human
Description: (§1) For in vitro assays, three tumor cell lines were used: MCF7 (ER-positive BC), maintained in Roswell Park Memorial Institute medium (RPMI-1640, Gibco®, Grand Island, NY, USA); MDA-MB-453 (HER2-positive BC), grown in Iscove’s Modified Dulbecco’s Medium (IMDM, Gibco®); and MDA-MB-231 (TNBC), grown in Leibovitz’s L-15 Medium (L15, Gibco®). Additionally, three non-tumor cell lines were used: HUVEC (human umbilical vein endothelial cells), cultured in (RPMI-1640); HFF (human fibroblast), cultured in Dulbecco’s Modified Eagle Medium: Nutrient Mixture—High Glucose (DMEM/F12-High Glucose, Gibco®); and MCF10A (human mammary epithelial cell line), also cultured in DMEM/F12 supplemented with 10 μg/mL of insulin (Gibco®), 0.25 μg/mL of hydrocortisone (Sigma-Aldrich®, Saint Louis, MO, USA), and […] of Epidermal Growth Factor (EGF) (Gibco®). All culture media were supplemented with 10% fetal bovine serum (FBS) (Gibco®) and 50 μg/mL of gentamicin (Cultilab®, Campinas, SP, Brazil). The culture flasks were kept in an incubator at 37 °C under an atmosphere of 5% CO2, except for the MDA-MB 231 lineage, which was grown without CO2 gas exchange. All cells were purchased from the American Type Culture Collection (ATCC, Manassas, VA, USA).
(§2) To analyze cell viability, the test based on the reduction of tetrazolium 3-(4,5-dimethylthiazol-2yl)-2,5-diphenyl bromide (MTT) was used. HUVEC cell lines (1.0 × 10^4 cells/well); HFF (8.0 × 10^3 cells/well); MCF10A (1.2 × 10^4 cells/well); MDA-MB-453 and MCF7 (5.0 × 10^3 cells/well) and MDA-MB-231 (1.5 × 10^4 cells/well) were seeded in 96-well plates in complete culture medium. […] All assays were performed in triplicate. Wells containing only cells and medium (untreated cells) and wells containing cells treated with DMSO diluent were used as experimental controls (considered as 100% cell viability). After incubation, MTT (5 mg/mL-diluted in phosphate-buffered saline—PBS) was added along with complete culture medium at 10% v/v and maintained for 4 h. Then, 200 μL of DMSO was added to each well and the reading was carried out at 560 nm using the Multiskan FC Microplate Photometer reader (Thermo Fisher Scientific®, Waltham, MA, USA).
(§3) The data obtained were analyzed using GraphPad Prism 8.0 software. Three independent triplicate assays were conducted and means and standard deviations were calculated. Normality was assessed using the Shapiro–Wilk test and Student’s t-test and one-way ANOVA, followed by Tukey’s post-test, were applied to compare treatments. Differences were considered significant when p < 0.05. The IC50 values were calculated by non-linear regression and the selectivity index (SI) for MDA-MB-231 cells was established by the ratio between the IC50 of each non-tumor cell line and the IC50 of MDA-MB-231. SI values ≥ 2 were considered significant.

[2] = system: MDA-MB-231 (TNBC) cells; assay: MTT cell viability assay, MDA-MB-231; assay type: cell-based, human
Description: as §1, §2, §3

[3] = system: HUVEC (human umbilical vein endothelial cells); assay: MTT cell viability assay, HUVEC; assay type: cell-based
Procedure: (§4) For in vitro assays, three tumor cell lines were used: MCF7 (ER-positive BC), maintained in Roswell Park Memorial Institute medium (RPMI-1640, Gibco®, Grand Island, NY, USA); MDA-MB-453 (HER2-positive BC), grown in Iscove’s Modified Dulbecco’s Medium (IMDM, Gibco®); and MDA-MB-231 (TNBC), grown in Leibovitz’s L-15 Medium (L15, Gibco®). […]
(§5) To analyze cell viability, the test based on the reduction of tetrazolium 3-(4,5-dimethylthiazol-2yl)-2,5-diphenyl bromide (MTT) was used. […] Then, 200 μL of DMSO was added to each well and the reading was carried out at 560 nm using the Multiskan FC Microplate Photometer reader (Thermo Fisher Scientific®, Waltham, MA, USA).
as §3, with “Differences were considered significant when p < 0.05.” left out, “SI values ≥ 2 were considered significant.” left out

[4] = system: HFF (human fibroblast); assay: MTT cell viability assay, HFF; assay type: cell-based
Procedure: as §4, §5
as §3, with “Differences were considered significant when p < 0.05.” left out, “SI values ≥ 2 were considered significant.” left out

[5] = system: MDA-MB-453 (HER2-positive BC) cells; assay: MTT cell viability assay, MDA-MB-453; assay type: cell-based, human
Procedure: All culture media were supplemented with 10% fetal bovine serum (FBS) (Gibco®) and 50 μg/mL of gentamicin (Cultilab®, Campinas, SP, Brazil). […] All cells were purchased from the American Type Culture Collection (ATCC, Manassas, VA, USA).
as §2, with “used.” for “used. HUVEC cell lines (1.0 × 10^4 cells/well); HFF (8.0 × 10^3 cells/well); MCF10A (1.2 × 10^4 cells/well); MDA-MB-453 and MCF7 (5.0 × 10^3 cells/well) and MDA-MB-231 (1.5 × 10^4 cells/well) were seeded in 96-well plates in complete culture medium.”
as §3, with “The IC50 values were calculated by non-linear regression and the selectivity index (SI) for MDA-MB-231 cells was established by the ratio between the IC50 of each non-tumor cell line and the IC50 of MDA-MB-231.” left out

[6] = system: MCF10A (human mammary epithelial cell line); assay: MTT cell viability assay, MCF10A; assay type: cell-based; parameters: key to SI (Non-Tumor/MDA-MB231) MCF10A: NS: nonselective; HS: highly selective
Description: as §1, §5
as §3, with “Differences were considered significant when p < 0.05.” left out, “SI values ≥ 2 were considered significant.” left out

[7] = Solubility in solvents; assay type: physicochemical

Compound | IC50 ([1]; 48 h) | concentration from which cell viability decreased, MCF7 ([1]; 48 h) | cytotoxicity in words, MCF7 ([1]; 48 h) | IC50 ([2]; 48 h) | cytotoxicity in words, MDA-MB-231 ([2]; 48 h) | IC50 ([5]; 48 h) | cytotoxicity in words, MDA-MB-453 ([5]; 48 h) | solubility in MeOH [7] | IC50 ([1]; Homo sapiens, MCF7, 48 h) | IC50 ([2]; Homo sapiens, MDA-MB-231, 48 h) | IC50 ([5]; Homo sapiens, MDA-MB-453, 48 h) | further results
CCNC(=NN=C(C)c1ccccn1)[S][Zn][O]C(=NN=C(C)c1ccccn1)c1ccco1 [Complex 1, [Zn(Hz)(atc–Et)]] | 9.43 µM | ≥ 0.25 µM | proliferated after treatment with the lowest concentrations | 0.24 µM | cytotoxic | 0.32 µM | cytotoxic |  |  |  |  | IC50 ([3]; 48 h, MTT, non-tumor cell line): 2.52 µM; SI (Non-Tumor/MDA-MB231) HUVEC ([3]; IC50 in HUVEC divided by IC50 of MDA-MB-231): 10.50; IC50 ([4]; 48 h, MTT, non-tumor cell line): 4.57 µM; SI (Non-Tumor/MDA-MB231) HFF ([4]; IC50 in HFF divided by IC50 of MDA-MB-231): 19.04; sensitivity in words, MCF10A ([6]; 48 h, MTT, compared with HUVEC and HFF): most sensitive; IC50 ([6]; 48 h, MTT, non-tumor cell line): < 0.01 µM; SI (Non-Tumor/MDA-MB231) MCF10A ([6]; IC50 in MCF10A divided by IC50 of MDA-MB-231): NS
CC(=NNC(N)=O)c1ccccn1.CCNC(=NN=C(C)c1ccccn1)[S][Zn+].[Cl-] [Complex 3, [Zn(atc–Et)(Hsc)]Cl] |  |  |  |  |  |  |  | pretty soluble |  |  |  | 
CC(=NN=C([O][Zn+])c1ccco1)c1ccccn1.CC(=NNC(N)=O)c1ccccn1.[Cl-] [Complex 4, [Zn(Hz)(Hsc)]Cl] |  |  |  |  |  |  |  | pretty soluble |  |  |  | 
CCNC(=S)N/N=C(\C)c1ccccn1 [Hatc-Et, 2-Acetylpyridine-4-ethyl-3-thiosemicarbazone] |  |  | most resistant |  | most sensitive |  | most sensitive |  | > 156 µM | 0.27 µM | < 0.01 µM | 
CC(=NNC(=O)c1ccco1)c1ccccn1 [Hhz, 2-Acetylpyridine-furanoylhidrazone] |  | ≥ 6.25 µM |  |  |  |  |  |  | > 156 µM | 30.3 µM | 4.11 µM | concentration from which cytotoxicity was observed, MDA-MB-231 ([2]; 48 h): ≥ 1250 nM; concentration from which cell viability decreased, MDA-MB-453 ([5]; 48 h): ≥ 6.25 µM
[Cl-].[Cl-].[Zn+2] [ZnCl2, zinc chloride] | > 156 µM |  |  | > 156 µM |  | < 0.01 µM |  |  |  |  |  | 
